The values below come from ChEMBL document CHEMBL3580598, “Limonoids and Triterpenoids from Dysoxylum mollissimum var. glaberrimum” (J Nat Prod, 2015).

For experiment [1], the system named is P388. The experiment in a line: Cytotoxicity against mouse P388 cells assessed as inhibition of cell growth at 10 uM by MTT method. The experiment is classed as functional. Particulars: read-out: GI. For orientation: Tetrazolium dyes change colour on reduction, which living cells bring about.
In experiment [2] the test system is A549. The experiment in a line: Cytotoxicity against human A549 cells assessed as inhibition of cell growth at 10 uM by SRB protein staining method. The experiment is classed as functional. The note with it: read-out: GI. For orientation: Sulforhodamine B stains cellular protein and so reports cell mass.
Experiment [3] deals with HL-60. The experiment in a line: Cytotoxicity against human HL60 cells assessed as inhibition of cell growth at 10 uM by MTT method. It counts as functional. Particulars: read-out: GI.
Experiment [4] has as its system A549. The experiment in a line: Cytotoxicity against human A549 cells by SRB protein staining method. The experiment is classed as functional, cell-based.
Experiment [5] relates to P388. The experiment in a line: Cytotoxicity against mouse P388 cells by MTT method. It counts as functional, cell-based.
The subject of experiment [6] is HL-60. The experiment in a line: Cytotoxicity against human HL60 cells by MTT method. The experiment is classed as functional, cell-based.

For the molecule `C=C1[C@@H]([C@@]2(C)C=CC(=O)O[C@@](C)(COC(C)=O)[C@@H]2CC(=O)OC)[C@@H](OC=O)[C@H](OC(=O)C(O)C(C)C)[C@@]2(C)[C@H](c3ccoc3)[C@@H](OC(=O)C(OC(C)=O)C(C)C)[C@H]3O[C@]132` (some centres undefined), the inhibition of growth at 10 µM in experiment [1], in experiment [2] and in experiment [3] was below 50% in each case.

Take `CC(=O)O[C@H]1CC(=O)O[C@@]2(C)CO[C@H]3[C@@H](O)[C@]4(C)[C@H](CC[C@@]5(C)[C@H](c6ccoc6)OC(=O)[C@H]6O[C@@]645)[C@]1(C)[C@@H]32`: the inhibition of growth at 10 µM in experiment [1], in experiment [2] and in experiment [3] was below 50% each time.

For `CC(=O)O[C@H]1CC(=O)O[C@@]2(C)CO[C@H]3[C@@H](OC(=O)C(O)C(C)C)[C@]4(C)[C@H](CC[C@@]5(C)[C@H](c6ccoc6)OC(=O)[C@H]6O[C@@]645)[C@]1(C)[C@@H]32` (some centres undefined), the inhibition of growth at 10 µM in experiment [1], in experiment [2] and in experiment [3] was below 50% in each case.

`COC(=O)C[C@H](OC(C)=O)[C@]1(C)[C@H]2CC[C@@]3(C)[C@H](c4ccoc4)OC(=O)[C@H]4O[C@]43[C@]2(C)[C@H](OC(C)=O)[C@H](OC(C)=O)[C@H]1C(C)(C)O`: the inhibition of growth at 10 µM in experiment [1], in experiment [2] and in experiment [3] was below 50% throughout.

For `C=C(C)[C@@H]1C[C@@H](O)[C@@]2(C)C3=C[C@H](OC(C)=O)[C@@H](c4ccoc4)[C@]3(C)CC[C@@H]2[C@@]1(C)[C@@H](O)CC(=O)OC`, the inhibition of growth at 10 µM in experiment [1], in experiment [2] and in experiment [3] was below 50% in each case.

As for `CC(=O)O[C@@H]1C[C@H]2C(C)(C)[C@H](O)CC[C@]2(C)[C@H]2CC[C@]3(C)C(=CC[C@H]3[C@@]3(O)COC(=O)C3)[C@@]21C`, the inhibition of growth at 10 µM in experiment [1], in experiment [2] and in experiment [3] was below 50% throughout.

On to `CC1(C)C(=O)CC[C@]2(C)[C@H]3CC[C@]4(C)C(=CC[C@H]4C4=CC(=O)OC4)[C@]3(C)[C@H](OC(=O)c3ccccc3)C[C@@H]12`, for which the inhibition of growth at 10 µM in experiment [1], in experiment [2] and in experiment [3] was below 50% in each case.

For `C=C1[C@@H]([C@@]2(C)[C@@H](OC(C)=O)CC(=O)O[C@@](C)(COC(C)=O)[C@@H]2CC(=O)OC)[C@@H](C(=O)O)[C@H](OC(=O)C(O)C(C)C)[C@@]2(C)[C@H](c3ccoc3)C(OC(=O)C(C)CC)[C@H]3O[C@]132` (some centres undefined), half-maximal inhibition in experiment [4] (IC50) required 2100 nM.

Take `C[C@@H]([C@@H]1O[C@H]1[C@H](O)C(C)(C)O)[C@@H]1CC[C@]2(C)C3=CC[C@H]4C(C)(C)C(=O)CC[C@]4(C)[C@H]3CC[C@@]12C`: the inhibition of growth at 10 µM in experiment [2] and in experiment [3] was below 50% each time.

As for `C[C@@H]([C@@H]1O[C@H]1[C@@H](O)C(C)(C)O)[C@@H]1CC[C@]2(C)C3=CC[C@H]4C(C)(C)C(=O)CC[C@]4(C)[C@H]3CC[C@@]12C`, the inhibition of growth at 10 µM in experiment [1], in experiment [2] and in experiment [3] was below 50% each time.

On to `COc1cccc2c1C(=O)c1c(O)c3c(c(O)c1C2=O)C[C@@](O)(C(=O)CO)C[C@@H]3O[C@H]1C[C@H](N)[C@H](O)[C@H](C)O1` [DOXORUBICIN], for which the IC50 worked out at 200 nM in experiment [5] and 58 nM in experiment [6].

What is called IC50 is the concentration at which inhibition is half-maximal. Read a high IC50 as weaker potency in that assay.
